Measurements from US20090270407A1, “FUNGICIDAL ISOXAZOLIDINES” (E. I. DU PONT DE NEMOURS AND COMPANY, priority 2008, published 2009).
Where two headings read alike, the source gives them in different places. Marks after values point to notes of the source that are not given here.

Columns and labels:
Septoria tritici = assay: Test D: wheat leaf blotch, preventive spray on wheat seedlings, visual disease rating; type: in vivo; details: 100 = 100 % disease control, 0 = no disease control relative to controls
From the text: A dash (−) indicates no test results.

Phytophthora infestans = type: in vivo; details: 100 = 100 % disease control, 0 = no disease control relative to controls
[1] = system: Puccinia recondita f. sp. tritici; assay: Test B: wheat leaf rust, preventive spray on wheat seedlings, visual disease rating; details: 100 = 100 % disease control, 0 = no disease control relative to controls
From the text: General protocol for preparing test suspensions for Tests A-I: The test compounds were first dissolved in acetone in an amount equal to 3% of the final volume and then suspended at the desired concentration (in ppm) in acetone and purified water (50/50 mix) containing 250 ppm of the surfactant Trem® 014 (polyhydric alcohol esters). The resulting test suspensions were then used in Tests A-I. Spraying a 200 ppm test suspension to the point of run-off on the test plants was the equivalent of a rate of 500 g/ha.
The test suspension was sprayed to the point of run-off on wheat seedlings. The following day the seedlings were inoculated with a spore suspension of Puccinia recondita f. sp. tritici (the causal agent of wheat leaf rust) and incubated in a saturated atmosphere at 20° C. for 24 h, and then moved to a growth chamber at 20° C. for 7 days, after which time visual disease ratings were made.
(§1) All results are for 200 ppm except where followed by “*” which indicates 40 ppm.

Botrytis cinerea = assay: Test E: tomato Botrytis, preventive spray on tomato seedlings, visual disease rating; details: 100 = 100 % disease control, 0 = no disease control relative to controls
Septoria nodorum = assay: Test C: wheat glume blotch, preventive spray on wheat seedlings, visual disease rating; details: 100 = 100 % disease control, 0 = no disease control relative to controls
Experimental: (An asterisk “*” next to the rating value indicates a 40 ppm test suspension.)
The test suspension was sprayed to the point of run-off on wheat seedlings. The following day the seedlings were inoculated with a spore suspension of Septoria nodorum (the causal agent of wheat glume blotch) and incubated in a saturated atmosphere at 20° C. for 48 h, and then moved to a growth chamber at 20° C. for 7 days, after which time visual disease ratings were made.
(§2) A dash (−) indicates no test results. All results are for 200 ppm except where followed by “*” which indicates 40 ppm.

[2] = system: Erysiphe graminis f. sp. tritici; assay: Test A: wheat powdery mildew, preventive spray on wheat seedlings, visual disease rating; details: 100 = 100 % disease control, 0 = no disease control relative to controls
From the text: (§3) General protocol for preparing test suspensions for Tests A-I: The test compounds were first dissolved in acetone in an amount equal to 3% of the final volume and then suspended at the desired concentration (in ppm) in acetone and purified water (50/50 mix) containing 250 ppm of the surfactant Trem® 014 (polyhydric alcohol esters). The resulting test suspensions were then used in Tests A-I. Spraying a 200 ppm test suspension to the point of run-off on the test plants was the equivalent of a rate of 500 g/ha. (An asterisk “*” next to the rating value indicates a 40 ppm test suspension.)
The test suspension was sprayed to the point of run-off on wheat seedlings. The following day the seedlings were inoculated with a spore dust of Erysiphe graminis f. sp. tritici (the causal agent of wheat powdery mildew) and incubated in a growth chamber at 20° C. for 8 days, after which time visual disease ratings were made.

Alternaria solani = assay: Test F: tomato early blight, preventive spray on tomato seedlings, visual disease rating; details: 100 = 100 % disease control, 0 = no disease control relative to controls
Plasmopara viticola = assay: Test I: grape downy mildew, spray on grape seedlings after inoculation, visual disease rating; details: 100 = 100 % disease control, 0 = no disease control relative to controls
From the text: as §3
Grape seedlings were inoculated with a spore suspension of Plasmopara viticola (the causal agent of grape downy mildew) and incubated in a saturated atmosphere at 20° C. for 24 h. After a short drying period, the test suspension was sprayed to the point of run-off on the grape seedlings and then moved to a growth chamber at 20° C. for 6 days, after which time the test units were placed back into a saturated atmosphere at 20° C. for 24 h. Upon removal, visual disease ratings were made.
as §1

Rhizoctonia oryzae = assay: Test G: turf brown patch, preventive spray on creeping bent grass seedlings, visual disease rating; details: 100 = 100 % disease control, 0 = no disease control relative to controls
Experimental: The test suspension was sprayed to the point of run-off on creeping bent grass seedlings. The following day the seedlings were inoculated with a spore suspension of Rhizoctonia oryzae (the causal agent of turf brown patch) and incubated in a saturated atmosphere at 27° C. for 48 h, and then moved to a growth chamber at 27° C. for 3 days, after which time visual disease ratings were made.
as §2

Cc1ccc(-c2ccc(C3CC(c4cccnc4)(C(F)(F)F)ON3C)cc2)cc1 (racemic) [Compound 26]
Test D disease control rating (Septoria tritici; 40 ppm (marked *)): 75* % | Test H disease control rating (Phytophthora infestans; 40 ppm (marked *)): 0* % | Test B disease control rating ([1]; 40 ppm (marked *)): 0* % | Test E disease control rating (Botrytis cinerea; 40 ppm (marked *)): 0* % | Test C disease control rating (Septoria nodorum; 40 ppm (marked *)): 0* % | Test A disease control rating ([2]; 40 ppm (marked *)): 96* % | Test F disease control rating (Alternaria solani; 40 ppm (marked *)): 0* % | Test I disease control rating (Plasmopara viticola; 40 ppm (marked *)): 0* % | Test G disease control rating (Rhizoctonia oryzae; 40 ppm (marked *)): 0* %

CN1O[C@@](c2cccnc2)(C(F)(F)F)C[C@@H]1c1ccc(I)cc1 (relative stereo) [Compound 27, rel-3-[(3R,5S)-3-(4-iodophenyl)-2-methyl-5-(trifluoromethyl)-5-isoxazolidinyl]pyridine]
Test D disease control rating (Septoria tritici; 40 ppm (marked *)): 95* % | Test H disease control rating (Phytophthora infestans; 40 ppm (marked *)): 0* % | melting point: 80 to 83 °C | Test B disease control rating ([1]; 40 ppm (marked *)): 0* % | Test E disease control rating (Botrytis cinerea; 40 ppm (marked *)): 0* % | Test C disease control rating (Septoria nodorum; 40 ppm (marked *)): 100* % | Test A disease control rating ([2]; 40 ppm (marked *)): 100* % | Test F disease control rating (Alternaria solani; 40 ppm (marked *)): 100* % | Test I disease control rating (Plasmopara viticola; 40 ppm (marked *)): 0* % | Test G disease control rating (Rhizoctonia oryzae; 40 ppm (marked *)): 0* %

CN1O[C@@](C)(c2cnccn2)C[C@@H]1c1ccc(-c2ccccc2)cc1 (relative stereo) [Compound 22]
Test D disease control rating (Septoria tritici; 40 ppm (marked *)): 97* % | Test H disease control rating (Phytophthora infestans; 40 ppm (marked *)): 0* % | Test B disease control rating ([1]; 40 ppm (marked *)): 0* % | Test E disease control rating (Botrytis cinerea; 40 ppm (marked *)): 0* % | Test C disease control rating (Septoria nodorum; 40 ppm (marked *)): 0* % | Test A disease control rating ([2]; 40 ppm (marked *)): 86* % | Test F disease control rating (Alternaria solani; 40 ppm (marked *)): 0* % | Test I disease control rating (Plasmopara viticola; 40 ppm (marked *)): 0* % | Test G disease control rating (Rhizoctonia oryzae; 40 ppm (marked *)): 0* %

CN1OC(c2cccnc2)(C(F)(F)F)CC1c1ccc(Br)cc1 (racemic) [Compound 30]
Test D disease control rating (Septoria tritici; 200 ppm): 83% | Test H disease control rating (Phytophthora infestans; 200 ppm): 0% | Test B disease control rating ([1]; 200 ppm): 89% | Test E disease control rating (Botrytis cinerea; 200 ppm): 0% | Test C disease control rating (Septoria nodorum; 200 ppm): 92% | Test A disease control rating ([2]; 200 ppm): 100% | Test F disease control rating (Alternaria solani; 200 ppm): 0% | Test I disease control rating (Plasmopara viticola; 200 ppm): 58% | Test G disease control rating (Rhizoctonia oryzae; 200 ppm): 0%

CN1OC(c2cccnc2)(C(F)(F)F)CC1c1ccc(Br)cc1 (racemic) [Compound 29]
Test D disease control rating (Septoria tritici; 40 ppm (marked *)): 76* % | Test H disease control rating (Phytophthora infestans; 40 ppm (marked *)): 0* % | Test B disease control rating ([1]; 40 ppm (marked *)): 0* % | Test E disease control rating (Botrytis cinerea; 40 ppm (marked *)): 0* % | Test C disease control rating (Septoria nodorum; 40 ppm (marked *)): 67* % | Test A disease control rating ([2]; 40 ppm (marked *)): 98* % | Test F disease control rating (Alternaria solani; 40 ppm (marked *)): 83* % | Test I disease control rating (Plasmopara viticola; 40 ppm (marked *)): 0* % | Test G disease control rating (Rhizoctonia oryzae; 40 ppm (marked *)): 0* %

CN1O[C@](C)(c2cnccn2)C[C@@H]1c1ccc(-c2ccccc2)cc1 (relative stereo) [Compound 21, rel-2-[(3R,5S)-3-[1,1′-biphenyl]-4-yl-2,5-dimethyl-5-isoxazolidinyl]pyrazine]
Test D disease control rating (Septoria tritici; 40 ppm (marked *)): 95* % | Test H disease control rating (Phytophthora infestans; 40 ppm (marked *)): 0* % | Test B disease control rating ([1]; 40 ppm (marked *)): 0* % | Test E disease control rating (Botrytis cinerea; 40 ppm (marked *)): 0* % | Test C disease control rating (Septoria nodorum; 40 ppm (marked *)): 0* % | Test A disease control rating ([2]; 40 ppm (marked *)): 97* % | Test F disease control rating (Alternaria solani; 40 ppm (marked *)): 62* % | Test I disease control rating (Plasmopara viticola; 40 ppm (marked *)): 0* % | Test G disease control rating (Rhizoctonia oryzae; 40 ppm (marked *)): 0* %

CN1O[C@](c2cccnc2)(C(F)(F)F)C[C@@H]1c1ccc(I)cc1 (relative stereo) [Compound 28, rel-3-[(3R,5R)-3-(4-iodophenyl)-2-methyl-5-(trifluoromethyl)-5-isoxazolidinyl]pyridine]
Test D disease control rating (Septoria tritici; 40 ppm (marked *)): 88* % | Test H disease control rating (Phytophthora infestans; 40 ppm (marked *)): 0* % | melting point: 108 to 110 °C | Test B disease control rating ([1]; 40 ppm (marked *)): 0* % | Test E disease control rating (Botrytis cinerea; 40 ppm (marked *)): 0* % | Test C disease control rating (Septoria nodorum; 40 ppm (marked *)): 33* % | Test A disease control rating ([2]; 40 ppm (marked *)): 99* % | Test F disease control rating (Alternaria solani; 40 ppm (marked *)): 0* % | Test I disease control rating (Plasmopara viticola; 40 ppm (marked *)): 0* % | Test G disease control rating (Rhizoctonia oryzae; 40 ppm (marked *)): 0* %

Cc1cccc(-c2ccc(C3CC(c4cccnc4)(C(F)(F)F)ON3C)cc2)c1C (racemic) [Compound 32]
Test D disease control rating (Septoria tritici; 200 ppm): 85% | Test H disease control rating (Phytophthora infestans; 200 ppm): 0% | Test B disease control rating ([1]; 200 ppm): 0% | Test E disease control rating (Botrytis cinerea; 200 ppm): 0% | Test C disease control rating (Septoria nodorum; 200 ppm): 0% | Test A disease control rating ([2]; 200 ppm): 97% | Test F disease control rating (Alternaria solani; 200 ppm): 0% | Test I disease control rating (Plasmopara viticola; 200 ppm): 9% | Test G disease control rating (Rhizoctonia oryzae; 200 ppm): 0%

CN1OC(c2cccnc2)(C(F)(F)F)CC1c1ccc(-c2ccccc2)cc1 (racemic) [Compound 23]
Test D disease control rating (Septoria tritici; 200 ppm): 98% | Test H disease control rating (Phytophthora infestans; 200 ppm): 0% | Test B disease control rating ([1]; 200 ppm): 0% | Test E disease control rating (Botrytis cinerea; 200 ppm): 0% | Test C disease control rating (Septoria nodorum; 200 ppm): 97% | Test A disease control rating ([2]; 200 ppm): 99% | Test F disease control rating (Alternaria solani; 200 ppm): 4% | Test I disease control rating (Plasmopara viticola; 200 ppm): 0% | Test G disease control rating (Rhizoctonia oryzae; 200 ppm): 0%

CN1OC(C)(c2cccnc2)CC1c1ccc(-n2cc(Br)cn2)cc1 (centres unmarked) [Compound 38]
Test D disease control rating (Septoria tritici; 40 ppm (marked *)): 77* % | Test H disease control rating (Phytophthora infestans; 40 ppm (marked *)): 0* % | Test B disease control rating ([1]; 40 ppm (marked *)): 0* % | Test E disease control rating (Botrytis cinerea; 40 ppm (marked *)): 0* % | Test C disease control rating (Septoria nodorum; 40 ppm (marked *)): 0* % | Test A disease control rating ([2]; 40 ppm (marked *)): 0* % | Test F disease control rating (Alternaria solani; 40 ppm (marked *)): 42* % | Test I disease control rating (Plasmopara viticola; 40 ppm (marked *)): 0* % | Test G disease control rating (Rhizoctonia oryzae; 40 ppm (marked *)): 0* %

CN1OC(C)(c2cccnc2)CC1c1ccc(Oc2ccc(F)cc2)cc1 (racemic) [Compound 20]
Test D disease control rating (Septoria tritici; 200 ppm): 92% | Test H disease control rating (Phytophthora infestans; 200 ppm): 0% | Test B disease control rating ([1]; 200 ppm): 92% | Test E disease control rating (Botrytis cinerea; 200 ppm): 0% | Test C disease control rating (Septoria nodorum; 200 ppm): 78% | Test A disease control rating ([2]; 200 ppm): 91% | Test F disease control rating (Alternaria solani; 200 ppm): 0% | Test I disease control rating (Plasmopara viticola; 200 ppm): 0% | Test G disease control rating (Rhizoctonia oryzae; 200 ppm): 0%

CN1OC(C)(c2cccnc2)CC1c1ccc(Oc2ccc(F)cc2)cc1 (racemic) [Compound 19]
Test D disease control rating (Septoria tritici; 200 ppm): 98% | Test H disease control rating (Phytophthora infestans; 200 ppm): 0% | Test B disease control rating ([1]; 200 ppm): 91% | Test E disease control rating (Botrytis cinerea; 200 ppm): 98% | Test C disease control rating (Septoria nodorum; 200 ppm): 99% | Test A disease control rating ([2]; 200 ppm): 98% | Test F disease control rating (Alternaria solani; 200 ppm): 7% | Test I disease control rating (Plasmopara viticola; 200 ppm): 0% | Test G disease control rating (Rhizoctonia oryzae; 200 ppm): 0%

Cc1ccc(-c2ccc(C3CC(c4cccnc4)(C(F)(F)F)ON3C)cc2)cc1 (racemic) [Compound 25]
Test D disease control rating (Septoria tritici; 40 ppm (marked *)): 86* % | Test H disease control rating (Phytophthora infestans; 40 ppm (marked *)): 0* % | Test B disease control rating ([1]; 40 ppm (marked *)): 0* % | Test E disease control rating (Botrytis cinerea; 40 ppm (marked *)): 71* % | Test C disease control rating (Septoria nodorum; 40 ppm (marked *)): 0* % | Test A disease control rating ([2]; 40 ppm (marked *)): 100* % | Test F disease control rating (Alternaria solani; 40 ppm (marked *)): 0* % | Test I disease control rating (Plasmopara viticola; 40 ppm (marked *)): 0* % | Test G disease control rating (Rhizoctonia oryzae; 40 ppm (marked *)): 0* %

CN1O[C@@](C)(c2cccnc2)C[C@@H]1c1ccc(-n2ccc(C(F)(F)F)n2)cc1 (relative stereo) [Compound 36, rel-3-[(3R,5R)-2,5-dimethyl-3-[4-[3-(trifluoromethyl)-1H-pyrazol-1-yl]phenyl]-5-isoxazolidinyl]pyridine]
Test D disease control rating (Septoria tritici; 40 ppm (marked *)): 73* % | Test H disease control rating (Phytophthora infestans; 40 ppm (marked *)): 0* % | Test B disease control rating ([1]; 40 ppm (marked *)): 0* % | Test E disease control rating (Botrytis cinerea; 40 ppm (marked *)): 22* % | Test C disease control rating (Septoria nodorum; 40 ppm (marked *)): 0* % | Test A disease control rating ([2]; 40 ppm (marked *)): 79* % | Test F disease control rating (Alternaria solani; 40 ppm (marked *)): 23* % | Test I disease control rating (Plasmopara viticola; 40 ppm (marked *)): 0* % | Test G disease control rating (Rhizoctonia oryzae; 40 ppm (marked *)): 7* %

CN1OC(C)(c2cccnc2)CC1c1ccc(-c2ccc(OC(F)(F)F)cc2)cc1 (racemic) [Compound 18]
Test D disease control rating (Septoria tritici; 40 ppm (marked *)): 58* % | Test H disease control rating (Phytophthora infestans; 40 ppm (marked *)): 0* % | Test B disease control rating ([1]; 40 ppm (marked *)): 0* % | Test E disease control rating (Botrytis cinerea; 40 ppm (marked *)): 0* % | Test C disease control rating (Septoria nodorum; 40 ppm (marked *)): 0* % | Test A disease control rating ([2]; 40 ppm (marked *)): 0* % | Test F disease control rating (Alternaria solani; 40 ppm (marked *)): 7* % | Test I disease control rating (Plasmopara viticola; 40 ppm (marked *)): 0* % | Test G disease control rating (Rhizoctonia oryzae; 40 ppm (marked *)): 0* %

CN1OC(c2cccnc2)(C(F)(F)F)CC1c1ccc(-c2ccccc2)cc1 (racemic) [Compound 24]
Test D disease control rating (Septoria tritici; 200 ppm): 100% | Test H disease control rating (Phytophthora infestans; 200 ppm): 0% | Test B disease control rating ([1]; 200 ppm): 45% | Test E disease control rating (Botrytis cinerea; 200 ppm): 0% | Test C disease control rating (Septoria nodorum; 200 ppm): 0% | Test A disease control rating ([2]; 200 ppm): 99% | Test F disease control rating (Alternaria solani; 200 ppm): 0% | Test I disease control rating (Plasmopara viticola; 200 ppm): 0% | Test G disease control rating (Rhizoctonia oryzae; 200 ppm): 0%
